From PubChem BioAssay (NCI)
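Interpolation was linear, between the two tested concentrations surrounding the appropriate level; five concentrations were tested over 48 hours in 96-well plates. GI50 marks 50% less growth. TGI denotes the concentration required for complete inhibition of growth.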

Assays:
Assay in all cases: growth of human tumour cells (NCI), 48 h
T-47D breast = tested on: T-47D breast
LOX IMVI melanoma = tested on: LOX IMVI melanoma
HCT-15 colon = tested on: HCT-15 colon
KM12 colon = tested on: KM12 colon
MOLT-4 leukemia = tested on: MOLT-4 leukemia
HOP-62 NSCLC = tested on: HOP-62 NSCLC
SW-620 colon = tested on: SW-620 colon
SNB-75 CNS = tested on: SNB-75 CNS
MCF7 breast = tested on: MCF7 breast
HCC-2998 colon = tested on: HCC-2998 colon
SK-MEL-28 melanoma = tested on: SK-MEL-28 melanoma
DU-145 prostate = tested on: DU-145 prostate
OVCAR-3 ovarian = tested on: OVCAR-3 ovarian
SK-OV-3 ovarian = tested on: SK-OV-3 ovarian
MDA-MB-435 = tested on: MDA-MB-435
SNB-19 CNS = tested on: SNB-19 CNS
CAKI-1 renal = tested on: CAKI-1 renal
A498 renal = tested on: A498 renal
RXF 393 renal = tested on: RXF 393 renal
NCI/ADR-RES ovarian = tested on: NCI/ADR-RES ovarian
UO-31 renal = tested on: UO-31 renal
OVCAR-8 ovarian = tested on: OVCAR-8 ovarian
SN12C renal = tested on: SN12C renal
UACC-257 melanoma = tested on: UACC-257 melanoma
OVCAR-4 ovarian = tested on: OVCAR-4 ovarian
ACHN renal = tested on: ACHN renal
U251 CNS = tested on: U251 CNS
SK-MEL-5 melanoma = tested on: SK-MEL-5 melanoma
TK-10 renal = tested on: TK-10 renal
PC-3 prostate = tested on: PC-3 prostate
HT29 colon = tested on: HT29 colon
EKVX NSCLC = tested on: EKVX NSCLC
M14 melanoma = tested on: M14 melanoma
SK-MEL-2 melanoma = tested on: SK-MEL-2 melanoma
NCI-H23 lung = tested on: NCI-H23 lung
HCT-116 colon = tested on: HCT-116 colon
IGROV1 ovarian = tested on: IGROV1 ovarian
COLO 205 colon = tested on: COLO 205 colon
NCI-H226 lung = tested on: NCI-H226 lung
HOP-92 NSCLC = tested on: HOP-92 NSCLC
RPMI-8226 leukemia = tested on: RPMI-8226 leukemia
BT-549 breast = tested on: BT-549 breast
NCI-H460 lung = tested on: NCI-H460 lung
SF-539 CNS = tested on: SF-539 CNS
HS 578T breast = tested on: HS 578T breast
CCRF-CEM leukemia = tested on: CCRF-CEM leukemia
K-562 leukemia = tested on: K-562 leukemia
SR leukemia = tested on: SR leukemia
MDA-MB-231 breast = tested on: MDA-MB-231 breast
786-0 renal = tested on: 786-0 renal
HL-60(TB) leukemia = tested on: HL-60(TB) leukemia
A549 NSCLC = tested on: A549 NSCLC
OVCAR-5 ovarian = tested on: OVCAR-5 ovarian
SF-295 CNS = tested on: SF-295 CNS
NCI-H522 lung = tested on: NCI-H522 lung
UACC-62 melanoma = tested on: UACC-62 melanoma
MALME-3M melanoma = tested on: MALME-3M melanoma

## Nc1ncnc2c1c(-c1ccc(Oc3ccccc3)cc1)nn2C[C@H]1SSC[C@H]1O
T-47D breast
  GI50: 205 nM
  TGI: 518 nM
LOX IMVI melanoma
  GI50: 70.3 nM
  TGI: 523 nM
HCT-15 colon
  GI50: 201 nM
  TGI: 2290 nM
KM12 colon
  GI50: 61.8 nM
  TGI: 2220 nM
MOLT-4 leukemia
  GI50: 18.4 nM
  TGI: 49.2 nM
HOP-62 NSCLC
  GI50: 39 nM
  TGI: 893 nM
SW-620 colon
  GI50: 395 nM
  TGI: > 100000 nM
SNB-75 CNS
  GI50: 2880 nM
  TGI: > 24000 nM
MCF7 breast
  GI50: 46.5 nM
  TGI: 1200 nM
HCC-2998 colon
  GI50: 388 nM
  TGI: 2030 nM
SK-MEL-28 melanoma
  GI50: 25.8 nM
  TGI: 79.3 nM
DU-145 prostate
  GI50: 1070 nM
  TGI: 2370 nM
OVCAR-3 ovarian
  GI50: 188 nM
  TGI: 421 nM
SK-OV-3 ovarian
  GI50: 222 nM
  TGI: 1310 nM
MDA-MB-435
  GI50: 25.5 nM
  TGI: 73.6 nM
SNB-19 CNS
  GI50: 510 nM
  TGI: 20100 nM
CAKI-1 renal
  GI50: 938 nM
  TGI: 2850 nM
A498 renal
  GI50: 1840 nM
  TGI: 4240 nM
RXF 393 renal
  GI50: 1350 nM
  TGI: 4310 nM
NCI/ADR-RES ovarian
  GI50: 1770 nM
  TGI: 4870 nM
UO-31 renal
  GI50: 468 nM
  TGI: 2770 nM
OVCAR-8 ovarian
  GI50: 1090 nM
  TGI: 3870 nM
SN12C renal
  GI50: 1400 nM
  TGI: 4670 nM
UACC-257 melanoma
  GI50: 208 nM
  TGI: 1360 nM
OVCAR-4 ovarian
  GI50: 1150 nM
  TGI: > 100000 nM
ACHN renal
  GI50: 499 nM
  TGI: 6750 nM
U251 CNS
  GI50: 1200 nM
  TGI: 4270 nM
SK-MEL-5 melanoma
  GI50: 159 nM
  TGI: 372 nM
TK-10 renal
  GI50: 289 nM
  TGI: 1000 nM
PC-3 prostate
  GI50: 2050 nM
  TGI: 11800 nM
HT29 colon
  GI50: 179 nM
  TGI: 1480 nM
EKVX NSCLC
  GI50: 309 nM
  TGI: 1730 nM
M14 melanoma
  GI50: 15.7 nM
  TGI: 33.2 nM
SK-MEL-2 melanoma
  GI50: 160 nM
  TGI: 435 nM
NCI-H23 lung
  GI50: 242 nM
  TGI: 968 nM
HCT-116 colon
  GI50: 48.9 nM
  TGI: 1210 nM
IGROV1 ovarian
  GI50: 455 nM
  TGI: 2470 nM
COLO 205 colon
  GI50: 464 nM
  TGI: 1800 nM
NCI-H226 lung
  GI50: 1430 nM
  TGI: 3420 nM
HOP-92 NSCLC
  GI50: 2030 nM
  TGI: 7310 nM
RPMI-8226 leukemia
  GI50: 1950 nM
  TGI: 9130 nM
BT-549 breast
  GI50: 2180 nM
  TGI: 6520 nM
NCI-H460 lung
  GI50: 23.3 nM
  TGI: 56.5 nM
SF-539 CNS
  GI50: 441 nM
  TGI: 5970 nM
HS 578T breast
  GI50: 1880 nM
  TGI: 8700 nM
CCRF-CEM leukemia
  GI50: 54 nM
  TGI: > 100000 nM
K-562 leukemia
  GI50: 197 nM
  TGI: 3100 nM
SR leukemia
  GI50: 28.9 nM
  TGI: 127 nM
MDA-MB-231 breast
  GI50: 1330 nM
  TGI: 3710 nM
786-0 renal
  GI50: 2040 nM
  TGI: 6370 nM
HL-60(TB) leukemia
  GI50: 242 nM
  TGI: 660 nM
A549 NSCLC
  GI50: 394 nM
  TGI: 2070 nM
OVCAR-5 ovarian
  GI50: 2200 nM
  TGI: > 31300 nM
SF-295 CNS
  GI50: 678 nM
  TGI: 3190 nM
NCI-H522 lung
  GI50: 953 nM
  TGI: 3160 nM
UACC-62 melanoma
  GI50: 37.7 nM
  TGI: 145 nM
MALME-3M melanoma
  GI50: 81.5 nM
  TGI: 332 nM
